Experimental data taken from patent publication US20220151983A1, “COMPOUNDS FOR INHIBITING FUCOSYLATION AND METHODS FOR USING THE SAME” (SCORE PHARMA, INC., priority 2019, published 2022).
Structures can show the parent of a compound that is named as a salt. Where two headings read alike, the source gives them in different places.

Columns and labels:
[1] = target: T1, fucosyltransferase (FUT-8) (Homo sapiens, UniProt Q9BYC5); assay: Inhibition of fucosyltransferase (FUT-8) activity, detection of fucosylation of the substrate protein; format: biochemical; settings: for inhibition at 10 µM: read-out: Primary Screen (10 μM), inhibition value
T1 sequence (Q9BYC5 1-575): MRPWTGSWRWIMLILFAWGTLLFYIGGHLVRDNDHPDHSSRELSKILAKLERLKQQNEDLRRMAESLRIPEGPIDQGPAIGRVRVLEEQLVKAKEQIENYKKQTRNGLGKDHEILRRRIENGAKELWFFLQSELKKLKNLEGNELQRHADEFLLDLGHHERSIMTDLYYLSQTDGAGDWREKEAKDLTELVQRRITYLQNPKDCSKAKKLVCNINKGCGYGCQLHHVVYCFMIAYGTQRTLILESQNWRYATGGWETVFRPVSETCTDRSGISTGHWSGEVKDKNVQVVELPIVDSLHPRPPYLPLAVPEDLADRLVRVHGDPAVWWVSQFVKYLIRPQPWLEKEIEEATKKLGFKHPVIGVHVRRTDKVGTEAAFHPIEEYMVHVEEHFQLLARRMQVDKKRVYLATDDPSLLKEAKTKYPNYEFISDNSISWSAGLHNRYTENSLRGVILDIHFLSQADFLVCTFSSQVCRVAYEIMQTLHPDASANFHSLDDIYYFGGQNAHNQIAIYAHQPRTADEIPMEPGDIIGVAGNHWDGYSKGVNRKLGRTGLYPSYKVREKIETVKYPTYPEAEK
Experimental: Briefly, a compound was combined with fucosyltransferase (FUT-8) and appropriate substrates and incubated for 1 hour. The reaction was terminated, and a detection reagent mixture was added to detect the amount of fucosylation of the substrate protein.

[2] = test system: CHO cells producing an anti-IL8 IgG monoclonal antibody (ATCC CRL-12445); assay: Reduction of fucosylation of anti-IL8 mAb produced by CHO cells, LC-MS analysis; format: cell-based
Source text: Briefly, Epicatechin Monogallate (ECG), Epicatechin-3-Monogallate (ECGC) and Aurin Tricarboxylic Acid (ATA) were included in the cell culture media and added to CHO cells producing an anti-IL8 IgG monoclonal antibody (mAb) obtained from [NT] CRL-12445), which is also described in U.S. Pat. No. 6,025,158, which is hereby incorporated by reference in its entirety. After a specified period of time the cells were harvested and the anti-IL8 mAb purified by standard methods. Purified anit-IL8 mAbs were then reduced by the addition of dithiothreitol and subjected to LC-MS analysis to determine the level of fucosylation. The decrease in the level of anti-IL8 fucosylation are depicted in FIG. 20 AND FIG. 21.

[3] = 10 μM compound, incubated for 1 hour
[4] = incubated for 1 hour, read-out: IC50 Value

| Compound | inhibition at 10 µM [1, 3] [%] | IC50 [1, 4] [µM] | also measured |
| --- | --- | --- | --- |
| C[n+]1c2cc(N)ccc2cc2ccc(N)cc21 [Acriflavinium] | 47 | > 10 | – |
| N.N.[Cl][Pt][Cl] [Cisplatin, reference compound] | – | > 10 | Primary Screen (10 μM), inhibition value [1, 3]: 60% |
| CCOc1ccc2nc3cc(N)ccc3c(N)c2c1 [Ethcridine Lactate, Etheridine Lactate] | 26 | > 10 | – |
| Cc1cc2c(C(C)C)c(O)c(O)c(C=O)c2c(O)c1-c1c(C)cc2c(C(C)C)c(O)c(O)c(C=O)c2c1O [Gossypol] | – | – | IC50 [1]: > 10 µM; inhibition at 10 µM [1]: 26% |
| Oc1c(Cl)cc(Cl)c(Cl)c1Cc1c(O)c(Cl)cc(Cl)c1Cl [Hexachlorophene, reference compound] | – | – | IC50 [1]: > 10 µM; inhibition at 10 µM [1]: 40% |
| CCN(CC)CCNc1ccc(CO)c2sc3ccccc3c(=O)c12 [Hycanthone, reference compound] | 27 | > 10 | – |
| O=C1c2c(O)ccc(O)c2C(=O)c2c(NCCNCCO)ccc(NCCNCCO)c21 [Mitoxanthrone Hydrocloride, Mitoxanthrone Hydrochloride, reference compound] | 49 | > 10 | – |
| Cc1ccc(C(=O)Nc2ccc(S(=O)(=O)O)c3cc(S(=O)(=O)O)cc(S(=O)(=O)O)c23)cc1NC(=O)c1cccc(NC(=O)Nc2cccc(C(=O)Nc3cc(C(=O)Nc4ccc(S(=O)(=O)O)c5cc(S(=O)(=O)O)cc(S(=O)(=O)O)c45)ccc3C)c2)c1 [Suramin, reference compound] | 70 | < 10 | – |
| O=C(OC[C@H]1O[C@@H](OC(=O)c2cc(O)c(O)c(OC(=O)c3cc(O)c(O)c(O)c3)c2)[C@H](OC(=O)c2cc(O)c(O)c(OC(=O)c3cc(O)c(O)c(O)c3)c2)[C@@H](OC(=O)c2cc(O)c(O)c(OC(=O)c3cc(O)c(O)c(O)c3)c2)[C@@H]1OC(=O)c1cc(O)c(O)c(OC(=O)c2cc(O)c(O)c(O)c2)c1)c1cc(O)c(O)c(OC(=O)c2cc(O)c(O)c(O)c2)c1 [Tannic Acid] | 93 | < 10 | – |
| O=C(O[C@@H]1Cc2c(O)cc(O)cc2O[C@@H]1c1cc(O)c(=O)c2c(O)c(O)cc([C@H]3Oc4cc(O)cc(O)c4C[C@H]3O)c2c1)c1cc(O)c(O)c(O)c1 [Theaflavin Monogallate] | 88 | < 10 | – |
| Carboplatin [reference compound] | – | > 10 | Primary Screen (10 μM), inhibition value [1, 3]: 45% |

The next lines start with results.

| inhibition at 10 µM [1, 3] [%] | IC50 [1, 4] [µM] | Compound | also measured |
| --- | --- | --- | --- |
| 39 | > 10 | O=C(O[C@@H]1Cc2c(O)cc(O)cc2O[C@@H]1c1cc(O)c(O)c(O)c1)c1cc(O)c(O)c(O)c1 | reduction in fucosylation ([2]; 10 μM in cell culture media): 6% |
| 82 | < 10 | O=C1C=C2CC3(O)COc4c(ccc(O)c4O)C3=C2C=C1O (centres unmarked) | – |
| 28 | > 10 | O=C1c2c(O)cccc2Cc2cccc(O)c21 [Anthralin, reference compound] | – |
| 34 | > 10 | O=C(O)C1=CC(=C(c2ccc(O)c(C(=O)O)c2)c2ccc(O)c(C(=O)O)c2)C=CC1=O [Aurin Tricarboxylic Acid] | change of fucosylation level ([2]; either concentration tested (data not shown)): did not alter the fucosylation level |
| 29 | – | O=c1cc(-c2ccccc2)oc2cc(O)c(O)c(O)c12 [Baicalein] | – |
| 30 | > 10 | O=c1cc(-c2ccccc2)oc2cc(O)cc(O)c12 [Chrysin] | – |
| 35 | – | COc1ccc(-c2cc(=O)c3c(O)cc(O)cc3o2)cc1O [Diometin] | – |
| 25 | > 10 | O=C(O[C@@H]1Cc2c(O)cc(O)cc2O[C@@H]1c1ccc(O)c(O)c1)c1cc(O)c(O)c(O)c1 [Epicatechin Monogallate] | reduction in fucosylation ([2]; 10-fold lower concentration than 100 μM): 13%; core fucosylated species, with concomitant rise in the afucosylated species ([2]; dose dependence): dose dependent decrease; reduction in fucosylation ([2]; maximum concentration (100 μM) in cell culture media): 25% |
| – | < 10 | C=C1c2cccc(O)c2C(=O)C2=C(O)[C@]3(O)C(=O)C(C(N)=O)=C(O)[C@@H](N(C)C)[C@@H]3[C@@H](O)[C@H]12 [Methacycline, reference compound] | Primary Screen (10 μM), inhibition value [1, 3]: 82% |
| 30 | > 10 | O=c1cc(-c2ccccc2)oc2cccc(O)c12 [Primuletin] | – |
| 30 | > 10 | O=c1c(O)cccc2cc(O)c(O)c(O)c12 [Purpurogallin] | – |
